Measurements from patent publication US10450314B2, “Pteridine derivatives as modulators of ROR gamma” (Boehringer Ingelheim International GmbH, priority 2015, dated 2019).

Tests used:
RORγ = target: T1, RORγ (Homo sapiens, UniProt P51449); test: RORγ Reporter Gene Assay (RGA), luciferase transactivation in transiently transfected HEK 293 cells; format: cell-based; conditions: HEK 293 cells cotransfected with pGL4.3 luc2P/GAL4UAS and pBIND Gal4DBD hRORC LBD; 20-24 h incubation
T1 construct: expressed in transfected cells; host or cells: HEK 293 cells, transiently cotransfected with pGL4.3 luc2P/GAL4UAS/Hygro reporter
T1 sequence (P51449 269-508 limits assumed): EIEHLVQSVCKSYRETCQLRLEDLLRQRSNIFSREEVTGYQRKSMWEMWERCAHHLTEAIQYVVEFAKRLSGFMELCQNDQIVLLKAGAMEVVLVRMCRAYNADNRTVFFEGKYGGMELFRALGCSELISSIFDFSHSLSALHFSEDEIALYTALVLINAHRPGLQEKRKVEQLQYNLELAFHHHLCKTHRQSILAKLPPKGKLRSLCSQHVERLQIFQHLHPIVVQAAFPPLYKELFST

[1] = Human liver microsome (HLM) metabolic stability assay; format: in vitro ADME; conditions: human liver microsomes, 1 uM compound, 37° C., 60 min; % hepatic blood flow
Procedure, shortened: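 Parent remaining measured by LC/MS/MS (ESI, MRM) at 5, 15, 30 and 60 min relative to 0 min, after acetonitrile quench. Incubation: 1 uM compound, human liver microsomes, NADPH-started, 37° C, 60 min total, single replicate. Half-life from slope of ln % remaining versus time; clearance parameters derived.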

Row | IC50 (RORγ) [nM] | HLM (% Qh) [1] [% Qh] | SMILES
1 | 185 | <24 | CCS(=O)(=O)c1cnc(CNc2nc3c(C)nc(-c4c(C)ncnc4C4CC4)nc3n([C@H](C)C(F)F)c2=O)nc1 [Example 93]
2 | 1100 | <24 | CC[C@@H](C)n1c(=O)c(NCc2ncc(S(C)(=O)=O)cn2)nc2c(C)nc(-c3c(OC)ncnc3C3CC3)nc21 [Example 56]
3 | 80 | <24 | CC[C@H](C)n1c(=O)c(NCc2ccc(S(=O)(=O)CC)cn2)nc2c(C)nc(-c3c(C)ncnc3C3CC3)nc21 [Example 60]
4 | 265 | <24 | CC[C@@H](C)n1c(=O)c(NCc2cnc(S(C)(=O)=O)cn2)nc2c(C)nc(-c3c(C)ncnc3C3CC3)nc21 [Example 55]
5 | 205 | <24 | CC[C@@H](C)n1c(=O)c(NCc2ccc(S(C)(=O)=O)nc2)nc2c(C)nc(-c3c(C)ncnc3C3CC3)nc21 [Example 72]
6 | 140 | <24 | CC[C@H](C)n1c(=O)c(NCc2ccc(S(C)(=O)=O)nc2)nc2c(C)nc(-c3c(C)ncnc3C3CC3)nc21 [Example 12]
7 | 235 | <24 | Cc1ncnc(C2CC2)c1-c1nc(C)c2nc(NCc3ccc(S(C)(=O)=O)cn3)c(=O)n(C(C)C(F)F)c2n1 (stereo not shown) [Example 90]

The remaining lines, values behind:

Row | SMILES | IC50 (RORγ) [nM] | HLM (% Qh) [1] [% Qh]
8 | Cc1ncnc(C2CC2)c1-c1nc(C)c2nc(NCc3ccc(S(C)(=O)=O)nc3)c(=O)n([C@@H](C)C3CC3)c2n1 [Example 7] | 70 | 33
9 | COc1ncnc(C2CC2)c1-c1nc(C)c2nc(NCc3ccc(S(N)(=O)=O)nc3)c(=O)n([C@@H](C)C(F)(F)F)c2n1 [Example 97] | 320 | 46
10 | Cc1ncnc(C2CC2)c1-c1nc(C)c2nc(NCc3ccc(S(C)(=O)=O)nc3)c(=O)n([C@@H](C)C(F)(F)F)c2n1 [Example 20] | 175 | 29
11 | CC[C@@H](C)n1c(=O)c(NCc2ccc(S(C)(=O)=O)cn2)nc2c(CF)nc(-c3c(C)ncnc3C3CC3)nc21 [Example 54] | 225 | 41
12 | COc1ncnc(C2CC2)c1-c1nc(C)c2nc(NCc3ccc(S(C)(=N)=O)cc3)c(=O)n([C@@H](C)C3CC3)c2n1 (stereo partly shown) [Example 67] | 110 | <24
13 | CC[C@@H](C)n1c(=O)c(NCc2ccc(S(C)(=O)=O)cn2)nc2c(COC(C)=O)nc(-c3c(C)ncnc3C3CC3)nc21 [Example 47] | 1050 | 56
14 | Cc1ncnc(C2CC2)c1-c1nc(C)c2nc(NCc3ccc(S(C)(=N)=O)cc3)c(=O)n([C@@H](C)C3CC3)c2n1 (single isomer, unassigned) [Example 27a] | 210 | <24
